Results from patent EP4685136A1, “AMINO LIPID, AND LIPID NANOPARTICLES AND USE THEREOF” (Shenzhen MagicRNA Biotechnology Co., Ltd., priority 2023, dated 2024).

What was measured:
[1] = Particle size and PDI of LNPs with different phospholipid lipid contents (Malvern particle size analyzer); assay type: physicochemical; conditions: Luc-mRNA LNPs, molar ratios of Table 4 (B1-B7); controls with 10 % phospholipid lipid
From the text: (§1) Preparation of lipid nanoparticles: the ionizable lipid (E12LA6B6O3) content was kept at 42.5%, the PEGylated lipid DMG-PEG2000 content was kept at 1.5%, and the phospholipid lipid ratio was adjusted to 15, 12.5, 10, 7.5, 5.0, 2.5, and 0. The increased or decreased molar ratio during adjustment of the phospholipid lipid molar ratio was applied to the cholesterol ratio to verify its effect on the quality control evaluation of lipid nanoparticles and on the in vivo delivery performance of luciferase mRNA. ALC-0315 and SM-102 were used as positive controls. Table 4: Component ratios under different phospholipids
(§2) E12LA6B6O3, phospholipid lipid (DSPC), cholesterol, and PEGylated lipid DMG-PEG2000 were mixed and dissolved in anhydrous ethanol according to the molar ratio in Table 4. The obtained ethanol solution and citric acid buffer (50 mM, pH = 4.0) dissolved with Luc-mRNA (TriLink) were mixed in a microfluidic chip at a volume ratio of 1:3 using a microfluidic preparation system to prepare a crude solution of lipid nanoparticles, which was then dialyzed in 1X PBS at 4°C for 6 h using a dialysis cassette (Fisher, MWCO 20,000). The product was filtered through a 0.22 µm microporous filter membrane before use. The base molar ratio of the amino lipid compound to the luciferase mRNA (Luc mRNA) is about 6.5:1. The quality control of lipid nanoparticles was tested on a Malvern particle size analyzer and an microplate reader, and SM-102 and ALC-0315 (both purchased from AVT (Shanghai) Pharmaceutical Technology Co., Ltd) were added as a control group.

[2] = Encapsulation efficiency of LNPs with different phospholipid lipid contents (microplate reader); assay type: physicochemical; conditions: Luc-mRNA LNPs, molar ratios of Table 4 (B1-B7); controls with 10 % phospholipid lipid
From the text: as §1
as §2, with “The product was filtered through a 0.22 µm microporous filter membrane before use. The base molar ratio of the amino lipid compound to the luciferase mRNA (Luc mRNA) is about 6.5:1.” left out

Balb/C mice = assay: In vivo delivery of luciferase mRNA by tail vein injection of LNPs with different DSPC contents (IVIS Spectrum); conditions: total fluorescence intensity, 0.1 mg/kg mRNA, 6 hours
From the text: as §1
E12LA6B6O3, phospholipid lipid (DSPC), cholesterol, and PEGylated lipid DMG-PEG2000 were mixed and dissolved in anhydrous ethanol according to the molar ratio in Table 4. […] The quality control of lipid nanoparticles was tested on a Malvern particle size analyzer and an microplate reader, and SM-102 and ALC-0315 (both purchased from AVT (Shanghai) Pharmaceutical Technology Co., Ltd) were added as a control group. […]
In vivo delivery: Three Balb/C mice were randomly selected from each group and injected with lipid nanoparticle solution at a dose of 0.1 mg/kg mRNA via tail vein injection. […] After 10 minutes, the mice were placed under the in vivo imaging system (IVIS Spectrum) to observe the total fluorescence intensity of each mouse and take photos for recording. […]

[3] = Particle size and PDI of Luc-mRNA lipid nanoparticles (Nano-ZS ZEN3600, Malvern); assay type: physicochemical; conditions: LNP of amino lipid:DSPC:cholesterol:DMG-PEG2000 47.5:10:41:1.5 with Luc-mRNA; lipid to mRNA mass ratio about 40:1
Procedure: (§3) The amino lipid compound of the present invention (or DLin-MC3 or SM-102 (both purchased from AVT (Shanghai) Pharmaceutical Technology Co., Ltd.)), phospholipid lipid (DSPC), cholesterol, and PEGylated lipid (DMG-PEG2000) were mixed and dissolved in anhydrous ethanol at a molar ratio of 47.5:10:41:1.5. The resulting ethanol solution and citric acid buffer (50 mM, pH = 4.0) dissolved with Luc-mRNA (TriLink) were mixed in a microfluidic chip at a volume ratio of 1:3 using a microfluidic preparation system to prepare a crude solution of lipid nanoparticles, which was then dialyzed in 1X PBS at 4°C for 6 h using a dialysis cassette (Fisher, MWCO 20,000). The product was filtered through a 0.22 µm microporous filter membrane before use. The mass ratio of the amino lipid compound to luciferase mRNA (Luc mRNA) was about 40:1.
The particle size and PDI (polydispersity index) of the prepared lipid nanoparticles were measured by Nano-ZSZEN3600 (Malvern). 20 µL of lipid nanoparticle (LNP) solution was taken for particle size measurement, and cycled three times with each cycle for 30 s.

[4] = Encapsulation efficiency of Luc-mRNA lipid nanoparticles (Quant-iT RiboGreen RNA Kit); assay type: physicochemical; conditions: LNP of amino lipid:DSPC:cholesterol:DMG-PEG2000 47.5:10:41:1.5 with Luc-mRNA; lipid to mRNA mass ratio about 40:1
Procedure: as §3
The encapsulation efficiency was determined according to the standard procedure of the Quant-iT RiboGreen RNA Kit. Table 1 Characterization data of LNPs prepared using representative amino lipid compounds

primary BMDC cells = assay: Transfection of Luc mRNA lipid nanoparticles on primary BMDC cells (ONE-Glo luciferase readout); assay type: cell-based, C57BL/6 mice; conditions: expression intensity of Luc mRNA on BMDCs; 10 µL LNP per well, 20,000 cells per well, 12 hours
Procedure: (§4) Animal preparation: 6-week-old female C57BL/6 mice weighing about 20 g were selected and raised in an SPF-grade feeding room. Animal experiments were conducted strictly in accordance with the guidelines of the National Institutes of Health and animal ethics requirements.
Cell acquisition: C57BL/6 mice were sacrificed by cervical dislocation and immersed in 75% alcohol for 5 minutes for disinfection. The thigh and tibia of the mice were dissected and the attached muscles were removed to expose the bone. The bone marrow in the tibia was blown out with a 1 mL syringe filled with PBS. The obtained bone marrow was dispersed by blowing and filtered through a 50 µm filter mesh to remove impurities. Red blood cell lysis solution (3-4 mL) was added to the obtained filtrate and allowed to stand for 5 minutes. Then, the supernatant was removed by centrifugation at 800 g for 5 minutes. The obtained cells were placed in 1640 culture medium (containing 10% fetal bovine serum, 20 ng/mL GMCSF, 10 ng/mL IL4) for being resuspended, and inoculated into 6-well plates at a density of 100,000 cells/mL of culture medium. The plates were placed in a cell culture incubator containing 5% CO2 at 37°C, and the medium was half-changed every 2 days. On the seventh day, the suspended cells and loosely adherent cells were collected and inoculated into 96-well all-white ELISA plates at a density of 20,000 cells per well, with a culture medium volume of 100 µL.
Cell transfection: the lipid nanoparticles encapsulating luciferase mRNA were added to a 96-well all-white ELISA plate with spreaded primary cells, and the volume of mRNA lipid nanoparticles added to each well was controlled to be 10 µL. Then, the plate was placed in an incubator with 5% CO2 concentration at 37°C for 12 hours.
Transfection efficiency detection: 20 µL of substrate ONE-Glo™ Luciferase was added to each well of a 96-well all-white ELISA plate, and the assay was performed using a multifunctional microplate reader (Biorek SynergyH1) after 1 min. The expression intensity of Luc mRNA transfected on BMDCs by lipid nanoparticles (LNPs) composed of representative amino lipid compounds is shown in Table 2, with DLin-MC3 and SM0102 as controls. Table 2 Expression intensity of transfection of representative amino lipid compounds on BMDCs

C57BL/6 mice = assay: In vivo delivery of luciferase mRNA by intramuscular injection of LNPs (IVIS imaging); conditions: total fluorescence intensity, Luc mRNA LNP, 0.5 mg/kg mRNA, 12 hours
Procedure: Preparation of lipid nanoparticles: same as Example 36.
as §4
In vivo delivery: Five C57BL/6 mice were randomly selected from each group and injected with lipid nanoparticle solution at a dose of 0.5 mg/kg mRNA by intramuscular injection. Twelve hours later, 200 µL of 10 mg/mL D-luciferin potassium salt was injected into the peritoneal cavity of each mouse. Five minutes later, the mice were placed under an in vivo imaging system (IVIS-200, Xenogen) to observe the total fluorescence intensity of each mouse and take photos for recording. The expression intensity of Luc mRNA delivered by intramuscular injection of LNPs composed of representative amino lipid compounds is shown in Table 3, with DLin-MC3 and SM-102 as controls. Table 3 Expression intensity of Luc mRNA delivered by intramuscular injection of LNPs composed of representative amino lipids

B16-OVA melanoma cells = assay: Tumor therapeutic effect of OVA mRNA LNP vaccine in B16-OVA melanoma-bearing mice; assay type: in vivo, C57BL/6 mice
Procedure: Preparation method: The amino lipid compound of the present invention was mixed with DSPC, cholesterol and DMG-PEG2000 at a molar ratio of 47.5:10:41:1.5 and dissolved in anhydrous ethanol. The obtained ethanol solution and citric acid buffer (50 mM, pH = 4.0) dissolved with OVA-mRNA were mixed in a microfluidic chip at a volume ratio of 1:3 using a microfluidic preparation system to prepare lipid nanoparticles, and then dialyzed in 1X PBS at 4°C for 6 h using a dialysis cassette (Fisher, MWCO 20,000) and filtered with a 0.22 µm microporous filter membrane before use. The mass ratio of the amino lipid compound to ovalbumin mRNA (OVA mRNA) was about 40: 1.
Animal preparation: Female C57BL/6 mice aged 5-6 weeks, weighing about 18-20 g were selected and kept in an SPF-grade feeding room. Animal experiments were conducted strictly in accordance with the guidelines of the National Institutes of Health and animal ethics requirements.
In vivo delivery: B16-OVA melanoma cells (1.5 × 10^5) were injected subcutaneously into the lateral thigh of mice. Vaccination was started when the tumor size reached 50 mm^3(approximately day 6 or 7 after tumor inoculation). Animals were immunized twice by intramuscular injection of LNP formulation containing 1 µg of OVA-mRNA, with an interval of the second injection from the first injection being 7 days. Tumor growth was measured three times per week using a digital caliper and calculated as 0.5 × length × width × width. Mice were euthanized when tumor volume reached 1500 mm^3.

Row | Structure (SMILES) | PDI [1] | Particle size (nm) [1] [nm] | Encapsulation efficiency (%) [2] [%] | Fluorescence intensity (Balb/C mice) | Average particle size (nm) [3] [nm] | PDI [3] | Encapsulation efficiency (%) [4] [%] | Luminescence intensity (primary BMDC cells) | Fluorescence intensity (C57BL/6 mice) | mice achieved complete remission (B16-OVA melanoma cells; two intramuscular injections 7 days apart of LNP containing 1 µg OVA-mRNA (Figure 3)) [%] | tumor growth rate (B16-OVA melanoma cells; two intramuscular injections 7 days apart of LNP containing 1 µg OVA-mRNA, compared with MC3 group (Figure 2))
1 | CCCCCCCCC(CCCCCC)C(=O)OCCCCCCN(CCCCO)CCCCCCOC(=O)C(CCCCCC)CCCCCCCC (centres unmarked) [ALC-0315] | 0.08 | 71.3 | 94.1 | 1.26E+10 | – | – | – | – | – | – | –
2 | CCCCCCCCC(COC(=O)CCCCC)OC(=O)CCCCCN(CCCO)CCCCCC(=O)OC(CCCCCCCC)COC(=O)CCCCC (centres unmarked) [E10LA6B6O3] | – | – | – | – | 92 | 0.07 | 95.41 | 1.5E+05 | 1.4E+09 | 80 | significantly slower than that of the MC3 group
3 | CCCCCCCCCCCOC(=O)CCCCCN(CCO)CCCCCCCC(=O)OC(CCCCCCCC)CCCCCCCC [SM-102, reference compound] | 0.09 | 91.9 | 96.4 | 9.86E+9 | 79 | 0.10 | 94.32 | 1.0E+05 | 1.4E+09 | – | –
